From ChEMBL document CHEMBL1201862, “PubChem BioAssay data set” (2004) come the findings set out here.

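Test compounds were applied to cells in 96-well plates for 48 hours at 5 doses. GI50: concentration for 50% inhibition of growth.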 Calls of active or inactive are those of the source. Cut-off read from the data, not from the text of the source: active = GI50 up to about 1.1 µM and inactive = higher. Some results are limits rather than exact numbers.

Some test systems named below: A498; CAKI-1; CCRF-CEM; EKVX; HCT-15; K562; MDA-MB-231; MDA-N; NCI-H23; NCI/ADR-RES; OVCAR-8; PC-3; RPMI-8226; RXF 393; SF-295; SK-MEL-28; UACC-62; OVCAR-4; SK-MEL-2; NCI-H522.
Holding throughout (experiment): NCI anticancer screen, dose series, 48 h

For `Nc1ccc(/C=C/c2ccc3cccnc3c2)cc1`, the GI50 in the assay on A498 was > 100 µM (inactive); in the assay on CAKI-1 it was 90.8 µM (inactive); with CCRF-CEM, > 100 µM (inactive); with EKVX it was > 100 µM (inactive); in the assay on HCT-15 it was over 100 µM; in the assay with K562, > 100 µM (inactive). Further, the GI50 in the assay on MDA-MB-231, in the assay with MDA-N, in the assay with NCI-H23, in the assay on NCI/ADR-RES, with OVCAR-8 and in the assay with PC-3 was > 100 µM (inactive) in each case. Also, the GI50 with RPMI-8226 was 2.26 µM (inactive); in the assay with RXF 393, > 100 µM (inactive); with SF-295, > 100 µM (inactive); with SK-MEL-28, > 100 µM (inactive); with UACC-62, > 100 µM (inactive).

In the case of `CCOC(=O)N1CCC(=C2c3ccc(Cl)cc3CCc3cccnc32)CC1` [LORATADINE], the GI50 in the assay with A498 is 0.849 µM (active); with CCRF-CEM it was 4.32 µM (inactive); with EKVX, 13.9 µM (inactive); in the assay with HCT-15, 7.55 µM; in the assay with K562 it was 6.12 µM (inactive); with MDA-MB-231 it was 20 µM (inactive). For the same compound, the GI50 is 4.55 µM (inactive) in the assay with MDA-N; 15.8 µM (inactive) in the assay on NCI-H23; 6.56 µM (inactive) in the assay with NCI/ADR-RES; 3.69 µM (inactive) in the assay with OVCAR-4; 12.7 µM (inactive) in the assay with OVCAR-8; 10.4 µM (inactive) in the assay on PC-3. Besides, the GI50 in the assay with RPMI-8226 was 3.83 µM (inactive); with RXF 393 it was 6.71 µM (inactive); in the assay on SK-MEL-28, 5.57 µM (inactive); in the assay with SK-MEL-2 it was 11.2 µM (inactive); with UACC-62, 4.73 µM (inactive).

Regarding `O=C1c2ccccc2-c2c1c(-c1cccc(Br)c1)nc1ccc3ccccc3c21`, the GI50 in the assay with A498 was > 100 µM (inactive); in the assay with CAKI-1, > 100 µM (inactive); in the assay with CCRF-CEM it was > 100 µM (inactive); in the assay with EKVX it was > 100 µM (inactive); with HCT-15 it was over 100 µM; in the assay on K562, > 100 µM (inactive). Besides, the GI50 with MDA-MB-231, in the assay with MDA-N, in the assay with NCI-H23, in the assay on NCI/ADR-RES, in the assay with OVCAR-4 and with OVCAR-8 was > 100 µM (inactive) throughout. Moreover, the GI50 in the assay with PC-3, in the assay on RPMI-8226, with RXF 393, in the assay on SF-295, with SK-MEL-28 and in the assay with SK-MEL-2 was > 100 µM (inactive) throughout. The GI50 in the assay on UACC-62 is > 100 µM (inactive).

With `CC(=O)Nc1ccc(Nc2nc(=O)[nH]c(=O)[nH]2)cc1`, the GI50 was > 100 µM (inactive) in the assay on A498; > 100 µM (inactive) with CAKI-1; > 100 µM (inactive) with CCRF-CEM; > 100 µM (inactive) with EKVX; over 100 µM in the assay on HCT-15; > 100 µM (inactive) in the assay on MDA-MB-231. For the same compound, the GI50 in the assay with MDA-N, in the assay with NCI-H23, in the assay on NCI-H522, with NCI/ADR-RES, in the assay on OVCAR-4 and in the assay on OVCAR-8 was > 100 µM (inactive) throughout. Moreover, the GI50 with PC-3, with RPMI-8226, in the assay with SF-295, with SK-MEL-28, with SK-MEL-2 and in the assay with UACC-62 was > 100 µM (inactive) in each case.

For the compound `C/C=C1\C(=O)OC2CCN3CCC(COC(=O)C(C)(O)C(C)C1O)C23` (stereo not drawn), the GI50 in the assay on A498 was > 100 µM (inactive); in the assay on CAKI-1 it was > 100 µM (inactive); in the assay on EKVX, > 100 µM (inactive); in the assay with HCT-15, over 100 µM; in the assay on K562 it was > 100 µM (inactive); in the assay on MDA-MB-231 it was > 100 µM (inactive). For the same compound, the GI50 with MDA-N, in the assay with NCI-H23, with NCI-H522, in the assay with NCI/ADR-RES, in the assay on OVCAR-4 and with OVCAR-8 was > 100 µM (inactive) each time. For the same compound, the GI50 with PC-3, in the assay on SF-295, with SK-MEL-28, with SK-MEL-2 and in the assay with UACC-62 was > 100 µM (inactive) each time.

As for `Cc1ccc(C(=O)O)c(CC2Cc3c(C)cccc3C2=O)c1` (stereo not drawn), the GI50 was > 100 µM (inactive) with CAKI-1; > 100 µM (inactive) in the assay on CCRF-CEM; > 100 µM (inactive) in the assay on EKVX; over 100 µM with HCT-15; > 100 µM (inactive) with K562; > 100 µM (inactive) in the assay on MDA-MB-231. Also, the GI50 with MDA-N, with NCI-H23, in the assay with NCI-H522, in the assay on NCI/ADR-RES, with OVCAR-4 and in the assay with OVCAR-8 was > 100 µM (inactive) throughout. Moreover, the GI50 in the assay on PC-3, in the assay on RPMI-8226, in the assay on RXF 393, with SF-295, in the assay with SK-MEL-28 and with SK-MEL-2 was > 100 µM (inactive) each time. Besides, the GI50 in the assay on UACC-62 was > 100 µM (inactive).

Regarding `COCN1C(=O)[C@@H]2CCCN2C(=O)c2cc(OC)c(Cc3ccccc3)cc21`, the GI50 in the assay with A498 was > 100 µM (inactive); in the assay on CAKI-1, > 100 µM (inactive); in the assay with EKVX it was > 100 µM (inactive); in the assay on HCT-15, over 100 µM; in the assay with MDA-MB-231 it was 49.5 µM (inactive); in the assay with MDA-N, > 100 µM (inactive). The GI50 in the assay with NCI-H23 was > 100 µM (inactive); in the assay on NCI-H522 it was 83.9 µM (inactive); in the assay with NCI/ADR-RES, > 100 µM (inactive); in the assay on OVCAR-4, 43.7 µM (inactive); in the assay with OVCAR-8, > 100 µM (inactive); with PC-3, 74.5 µM (inactive). Besides, the GI50 in the assay on RXF 393 is 34.3 µM (inactive); with SF-295, > 100 µM (inactive); with SK-MEL-28 it was > 100 µM (inactive); with SK-MEL-2, > 100 µM (inactive); in the assay on UACC-62, > 100 µM (inactive).

Regarding `CCOC(=O)c1ccc2c(c1)Cc1cc([N+](=O)[O-])ccc1-2`, the GI50 in the assay with A498 was 28.4 µM (inactive); in the assay on CAKI-1 it was 36.6 µM (inactive); with CCRF-CEM, 61.2 µM (inactive); with EKVX, 12.3 µM (inactive); with HCT-15, 57.8 µM; in the assay on K562, 55 µM (inactive). In addition, the GI50 was 32.3 µM (inactive) in the assay with MDA-MB-231; 48 µM (inactive) in the assay with MDA-N; 32.4 µM (inactive) in the assay on NCI-H23; 25.1 µM (inactive) with NCI/ADR-RES; 15.7 µM (inactive) in the assay on OVCAR-4; 42 µM (inactive) in the assay on OVCAR-8. Besides, the GI50 is 61.9 µM (inactive) in the assay with PC-3; 41.7 µM (inactive) with RPMI-8226; 22.9 µM (inactive) in the assay on RXF 393; 23.1 µM (inactive) with SF-295; 43 µM (inactive) with SK-MEL-28; 50 µM (inactive) in the assay with UACC-62.

On to `COC(=O)C1C(OC(=O)c2ccccc2)CC2CCC1N2C(N)=O` (stereo not drawn), for which the GI50 with A498 is > 100 µM (inactive); in the assay on CAKI-1 it was > 100 µM (inactive); in the assay on CCRF-CEM it was > 100 µM (inactive); in the assay on EKVX it was > 100 µM (inactive); in the assay on HCT-15, over 100 µM; in the assay with K562, > 100 µM (inactive). Besides, the GI50 with MDA-MB-231, with MDA-N, in the assay with NCI-H23, in the assay with NCI-H522, with NCI/ADR-RES and in the assay on OVCAR-4 was > 100 µM (inactive) in each case. Also, the GI50 with OVCAR-8, with PC-3, with RPMI-8226, in the assay with SF-295, in the assay with SK-MEL-28 and in the assay with SK-MEL-2 was > 100 µM (inactive) each time. Moreover, the GI50 in the assay on UACC-62 was > 100 µM (inactive).

For `CCOC(=O)c1ccc(NCc2ccc3nc(OC)c(OC)nc3c2)cc1`, the GI50 is > 100 µM (inactive) in the assay on A498; > 100 µM (inactive) in the assay with CAKI-1; > 100 µM (inactive) with CCRF-CEM; > 100 µM (inactive) in the assay with EKVX; over 100 µM in the assay with HCT-15; > 100 µM (inactive) with K562. The GI50 in the assay with MDA-MB-231 was 72.6 µM (inactive); in the assay on MDA-N, > 100 µM (inactive); with NCI-H23 it was > 100 µM (inactive); in the assay on NCI-H522, > 100 µM (inactive); in the assay with NCI/ADR-RES, > 100 µM (inactive); in the assay on OVCAR-4, 88.7 µM (inactive). For the same compound, the GI50 was 84.7 µM (inactive) with OVCAR-8; > 100 µM (inactive) in the assay with PC-3; > 100 µM (inactive) with SF-295; > 100 µM (inactive) with SK-MEL-28; > 100 µM (inactive) with SK-MEL-2; > 100 µM (inactive) with UACC-62.

As for `Cc1cc(S(=O)(=O)n2ccnc2Oc2cccc(Cl)c2)c(SSc2cc(Cl)c(C)cc2S(=O)(=O)n2ccnc2Oc2cccc(Cl)c2)cc1Cl`, the GI50 in the assay on A498 was 12.2 µM (inactive); with CAKI-1 it was 10.9 µM (inactive); in the assay on CCRF-CEM, 2.81 µM (inactive); with EKVX it was 4 µM (inactive); in the assay with HCT-15 it was 8.67 µM; in the assay with K562, 9.93 µM (inactive). Also, the GI50 is 12.4 µM (inactive) with MDA-MB-231; 8.38 µM (inactive) in the assay on MDA-N; 6.32 µM (inactive) with NCI-H23; 3.1 µM (inactive) with NCI/ADR-RES; 9.57 µM (inactive) with OVCAR-4; 6.59 µM (inactive) in the assay with OVCAR-8. Also, the GI50 is 6.11 µM (inactive) with PC-3; 2.67 µM (inactive) in the assay on RPMI-8226; 3.08 µM (inactive) with RXF 393; 4.19 µM (inactive) in the assay on SF-295; 14.1 µM (inactive) with SK-MEL-28; 7.66 µM (inactive) in the assay on SK-MEL-2. For the same compound, in the assay with UACC-62, the GI50 is 5.7 µM (inactive).
